Reference: patent US20220127281A1, “HETEROARYL COMPOUNDS THAT INHIBIT G12C MUTANT RAS PROTEINS” (AstraZeneca AB, priority 2017, published 2022)
Like-named read-outs stand apart in the source and are kept apart here.

How the values were obtained:
[1] = target: T1, GDP loaded biotinylated KRas^G12C protein (Homo sapiens, UniProt P01116, G12C); test: KRasG12C functional assay; type: biochemical; conditions: HTRF FRET readout of SOS-mediated nucleotide exchange and GST-Raf RBD binding, samples incubated for 4 hrs
T1 construct: biotin (biotinylated); made in house
Procedure: KRasG12C Functional Assay
All enzyme and substrate solutions were prepared in assay buffer containing 20 mM HEPES (pH 7.5), 5 mM MgCl2, 150 mM NaCl, and 0.01% Tween 20. […] In a separate mix 20 nM GST-Raf Ras binding domain (GST-Raf RBD, purified in house) and 4 μg/ml anti-GST XL665 antibody (Cisbio) was prepared in assay buffer containing 50 mM Potassium Fluoride and 0.05 mg/ml BSA and equilibrated for 4 hours before adding 0.6 μM Guanosine 5′-[γ-thio]triphosphate (GTPγS, Sigma) and 0.08 μM SOS (purified in house). 5 μl of the GST-RAF RBD mix was then dispensed into each well of the assay plate. […] This is detected simultaneously via the specific binding interaction between active GTPγS KRas^G12C with GST-Raf RBD which brings the europium and XL665 into close proximity enabling an increased FRET signal to be detected on a Pherastar (BMG) plate reader equipped with the HTRF filter module. […] IC50 values were calculated from normalised dose-response response FRET data curve fitted in Genedata screener (Basel, Switzerland).

[2] = target: T1, GDP loaded biotinylated KRas^G12C protein; test: KRasG12C mass spectrometry adducting assay; type: binding; conditions: test compound final concentration 10 μM, 4 μM KRasG12C, react for 4 hours
Procedure: KRasG12C Mass Spectrometry Adducting Assay
Enzyme solutions were prepared in assay buffer containing 20 mM HEPES (pH 7.5), 5 mM MgCl2, and 150 mM NaCl. […] The plate was sealed before reading on a Xevo G2 QTOF (Waters) and Acquity LC system (Waters). […] Blank samples were run in between each test sample.
Data was analysed in Mass Lynx software (Waters), the Total ion count (TIC) trace was used and the eluted protein peak data combined. Using the combined spectrum the data was deconvoluted using MaxEnt1 method. The peak area for apo-protein KRas^G12C (APO) and KRAS+relative cmpd mass (adduct) were measured, and a percentage adduct was calculated using the following calculation:
Percent adduct=100*(area of adduct peak/(sum of APO+adduct peaks)

[3] = read-out: KRasG12C functional assay IC50 value

T1 sequence (P01116 1-188 isoform P01116-2 G12C): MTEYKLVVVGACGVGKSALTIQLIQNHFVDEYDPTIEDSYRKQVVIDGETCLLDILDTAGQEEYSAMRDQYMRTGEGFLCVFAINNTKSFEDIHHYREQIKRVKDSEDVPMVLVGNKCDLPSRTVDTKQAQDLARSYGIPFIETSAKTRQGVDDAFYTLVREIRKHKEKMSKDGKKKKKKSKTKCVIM

| SMILES | IC50 [1, 3] [µM] | KRasG12C M.S. Binding Mean adduct % [2] [%] | IC50 ([1]; KRasG12C functional assay IC50 value (μM)) [µM] |
| --- | --- | --- | --- |
| C=CC(=O)N1CCN2c3ncnc4cc(-c5cccc6c(C)n(C)nc56)c(Cl)c(c34)OC[C@@H]2C1 [Example 37, 1-[(8aS)-6-Chloro-5-(2,3-dimethyl-2H-indazol-7-yl)-8a,9,11,12-tetrahydropyrazino[2′,1′:3,4][1,4]oxazepino[5,6,7-de]quinazolin-10(8H)-yl]prop-2-en-1-one] | 2.73 | 49 |  |
| C=CC(=O)N1CCN2c3ncnc4cc(-c5cc(CO)ccc5F)c(Cl)c(c34)OC[C@@H]2C1 [Example 38, 1-[(8aS)-6-Chloro-5-[2-fluoro-5-(hydroxymethyl)phenyl]-8a,9,11,12-tetrahydropyrazino[2′,1′:3,4][1,4]oxazepino[5,6,7-de]quinazolin-10(8H)-yl]prop-2-en-1-one] | 1.28 | 82 |  |
| C=CC(=O)N1CCN2c3ncnc4cc(-c5cccc6cnn(C)c56)c(Cl)c(c34)OC[C@@H]2C1 [Example 39, 1-[(8aS)-6-Chloro-5-(1-methyl-1H-indazol-7-yl)-8a,9,11,12-tetrahydropyrazino[2′,1′:3,4][1,4]oxazepino[5,6,7-de]quinazolin-10(8H)-yl]prop-2-en-1-one] | 0.803 | 79 |  |
| C=CC(=O)N1CCN2c3ncnc4cc(-c5cc(F)ccc5F)c(Cl)c(c34)OC[C@@H]2C1 [Example 40, 1-[(8aS)-6-Chloro-5-(2,5-difluorophenyl)-8a,9,11,12-tetrahydropyrazino[2′,1′:3,4][1,4]oxazepino[5,6,7-de]quinazolin-10(8H)-yl]prop-2-en-1-one] | 0.955 | 67 |  |
| C=CC(=O)N1CCN2c3ncnc4cc(-c5ccccc5C)c(Cl)c(c34)OC[C@@H]2C1 [Example 41, 1-[(8aS)-6-Chloro-5-(2-methylphenyl)-8a,9,11,12-tetrahydropyrazino[2′,1′:3,4][1,4]oxazepino[5,6,7-de]quinazolin-10(8H)-yl]prop-2-en-1-one] | 0.479 | 100 |  |
| C=CC(=O)N1CCN2c3ncnc4cc(-c5ccccc5Cl)c(Cl)c(c34)OC[C@@H]2C1 [Example 42, 1-[(8aS)-6-Chloro-5-(2-chlorophenyl)-8a,9,11,12-tetrahydropyrazino[2′,1′:3,4][1,4]oxazepino[5,6,7-de]quinazolin-10(8H)-yl]prop-2-en-1-one] | 0.247 | 100 |  |
| C=CC(=O)N1CCN2c3ncnc4cc(-c5cccc6c5COCCO6)c(Cl)c(c34)OC[C@@H]2C1 [Example 43, 1-[(8aS)-6-Chloro-5-(2,3-dihydro-5H-1,4-benzodioxepin-6-yl)-8a,9,11,12-tetrahydropyrazino[2′,1′:3,4][1,4]oxazepino[5,6,7-de]quinazolin-10(8H)-yl]prop-2-en-1-one] | 1.49 | 56 |  |
| C=CC(=O)N1CCN2c3ncnc4cc(-c5cccc6ccc(=O)n(C)c56)c(Cl)c(c34)OC[C@@H]2C1 [Example 44, 8-[(8aS)-10-Acryloyl-6-chloro-8,8a,9,10,11,12-hexahydropyrazino[2′,1′:3,4][1,4]oxazepino[5,6,7-de]quinazolin-5-yl]-1-methylquinolin-2(1H)-one] | 3.62 | 51 |  |
| C=CC(=O)N1CCN2c3ncnc4cc(-c5cccc6c5ncn6C)c(Cl)c(c34)OC[C@@H]2C1 [Example 45, 1-[(8aS)-6-Chloro-5-(1-methyl-1H-benzimidazol-4-yl)-8a,9,11,12-tetrahydropyrazino[2′,1′:3,4][1,4]oxazepino[5,6,7-de]quinazolin-10(8H)-yl]prop-2-en-1-one] | 1.58 | 72 |  |
| C=CC(=O)N1CCN2c3ncnc4cc(-c5cn(C)c6ccccc56)c(Cl)c(c34)OC[C@@H]2C1 [Example 46, 1-[(8aS)-6-Chloro-5-(1-methyl-1H-indol-3-yl)-8a,9,11,12-tetrahydropyrazino[2′,1′:3,4][1,4]oxazepino[5,6,7-de]quinazolin-10(8H)-yl]prop-2-en-1-one] | 1.51 | 65 |  |
| C=CC(=O)N1CCN2c3ncnc4cc(-c5cccc6oc(=O)n(C)c56)c(Cl)c(c34)OC[C@@H]2C1 [Example 47, 4-[(8aS)-10-Acryloyl-6-chloro-8,8a,9,10,11,12-hexahydropyrazino[2′,1′:3,4][1,4]oxazepino[5,6,7-de]quinazolin-5-yl]-3-methyl-1,3-benzoxazol-2(3H)-one] | 9.82 | 9 |  |
| C=CC(=O)N1CCN2c3ncnc4cc(-c5cc(Cl)ccc5OC)c(Cl)c(c34)OC[C@@H]2C1 [Example 48, 1-[(8aS)-6-Chloro-5-(5-chloro-2-methoxyphenyl)-8a,9,11,12-tetrahydropyrazino[2′,1′:3,4][1,4]oxazepino[5,6,7-de]quinazolin-10(8H)-yl]prop-2-en-1-one] | 6.31 | 68 |  |
| C=CC(=O)N1CCN2c3ncnc4cc(-c5ccccc5CC(N)=O)c(Cl)c(c34)OC[C@@H]2C1 [Example 49, 2-{2-[(8aS)-10-Acryloyl-6-chloro-8,8a,9,10,11,12-hexahydropyrazino[2′,1′:3,4][1,4]oxazepino[5,6,7-de]quinazolin-5-yl]phenyl}acetamide] | 7.53 | 28 |  |
| C=CC(=O)N1CCN2c3ncnc4cc(-c5ccc(F)cc5Cl)c(Cl)c(c34)OC[C@@H]2C1 [Example 50, 1-[(8aS)-6-Chloro-5-(2-chloro-4-fluorophenyl)-8a,9,11,12-tetrahydropyrazino[2′,1′:3,4][1,4]oxazepino[5,6,7-de]quinazolin-10(8H)-yl]prop-2-en-1-one] | 0.956 | 100 |  |
| C=CC(=O)N1CCN2c3ncnc4cc(-c5cc(F)ccc5OC)c(Cl)c(c34)OC[C@@H]2C1 [Example 51, 1-[(8aS)-6-Chloro-5-(5-fluoro-2-methoxyphenyl)-8a,9,11,12-tetrahydropyrazino[2′,1′:3,4][1,4]oxazepino[5,6,7-de]quinazolin-10(8H)-yl]prop-2-en-1-one] | 5.09 | 57 |  |
| C=CC(=O)N1CCN2c3ncnc4cc(-c5ccc(O)cc5)c(Cl)c(c34)OC[C@@H]2C1 [Example 52, 1-[(8aS)-6-Chloro-5-(4-hydroxyphenyl)-8a,9,11,12-tetrahydropyrazino[2′,1′:3,4][1,4]oxazepino[5,6,7-de]quinazolin-10(8H)-yl]prop-2-en-1-one] | 5.36 | 17 |  |
| C=CC(=O)N1CCN2c3ncnc4cc(-c5cccc6[nH]ccc56)c(Cl)c(c34)OC[C@@H]2C1 [Example 53, 1-[(8aS)-6-Chloro-5-(1H-indol-4-yl)-8a,9,11,12-tetrahydropyrazino[2′,1′:3,4][1,4]oxazepino[5,6,7-de]quinazolin-10(8H)-yl]prop-2-en-1-one] |  | 74 | 1.69 |
| C=CC(=O)N1CCN2c3ncnc4cc(-c5ccc(N)cc5C)c(Cl)c(c34)OC[C@@H]2C1 [Example 54, 1-[(8aS)-5-(4-Amino-2-methylphenyl)-6-chloro-8a,9,11,12-tetrahydropyrazino[2′,1′:3,4][1,4]oxazepino[5,6,7-de]quinazolin-10(8H)-yl]prop-2-en-1-one] | 2.57 | 60 |  |
| C=CC(=O)N1CCN2c3ncnc4cc(-c5cnccc5C)c(Cl)c(c34)OC[C@@H]2C1 [Example 55, 1-[(8aS)-6-Chloro-5-(4-methylpyridin-3-yl)-8a,9,11,12-tetrahydropyrazino[2′,1′:3,4][1,4]oxazepino[5,6,7-de]quinazolin-10(8H)-yl]prop-2-en-1-one] | 4.03 | 26 |  |
| C=CC(=O)N1CCN2c3ncnc4cc(-c5ccc(O)c(C#N)c5)c(Cl)c(c34)OC[C@@H]2C1 [Example 56, 5-[(8aS)-10-Acryloyl-6-chloro-8,8a,9,10,11,12-hexahydropyrazino[2′,1′:3,4][1,4]oxazepino[5,6,7-de]quinazolin-5-yl]-2-hydroxybenzonitrile] | 4.39 | 0 |  |
| C=CC(=O)N1CCN2c3ncnc4cc(-c5cccc6ocnc56)c(Cl)c(c34)OC[C@@H]2C1 [Example 57, 1-[(8aS)-5-(1,3-Benzoxazol-4-yl)-6-chloro-8a,9,11,12-tetrahydropyrazino[2′,1′:3,4][1,4]oxazepino[5,6,7-de]quinazolin-10(8H)-yl]prop-2-en-1-one] | 2.42 | 68 |  |
